According to US8748430B2, “Pyrrolidin-3yl-methylamine quinoxaline derivatives” (Hoffmann-La Roche Inc, priority 2008, dated 2014):

Target: T1, human orexin-2 (hOX2) receptor (Homo sapiens, UniProt O43614)
T1 construct: expressed in transfected cells
T1 sequence (O43614 1-444): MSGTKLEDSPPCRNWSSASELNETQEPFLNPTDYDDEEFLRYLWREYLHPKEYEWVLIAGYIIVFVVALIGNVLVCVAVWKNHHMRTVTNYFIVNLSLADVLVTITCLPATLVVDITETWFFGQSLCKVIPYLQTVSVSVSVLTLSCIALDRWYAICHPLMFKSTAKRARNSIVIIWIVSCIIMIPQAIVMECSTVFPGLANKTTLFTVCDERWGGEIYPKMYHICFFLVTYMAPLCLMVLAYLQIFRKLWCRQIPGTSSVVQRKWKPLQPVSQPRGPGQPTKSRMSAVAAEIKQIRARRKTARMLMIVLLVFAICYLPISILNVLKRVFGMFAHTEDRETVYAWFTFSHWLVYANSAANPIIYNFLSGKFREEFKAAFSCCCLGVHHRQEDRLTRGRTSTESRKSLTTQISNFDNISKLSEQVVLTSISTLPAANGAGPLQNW
Test: Intracellular Ca2+ mobilization assay (FLIPR), antagonism of orexin-A at EC80
Assay type: cell-based
Conditions: CHO(dHFr-) cells stably expressing hOX2; orexin-A at EC80 as agonist; antagonist applied 25 min before; Kb=IC50/(1+[A]/EC50); read-out: Kb (μM) OX2R (human)
Method: Intracellular Ca^2+ Mobilization Assay
The Chinese Hamster Ovary (dHFr-) mutant cell line stably expressing human orexin-1 (hOX1) or human orexin-2 (hOX2) receptors were maintained in Dulbecco's Modified Eagle Medium (1×) with GlutaMax™1, 4500 mg/L D-Glucose and Sodium Pyruvate (Catalog No. 31966-021, Invitrogen, Carlsbad, Calif.), 5% dialyzed fetal calf serum (Catalog No. 26400-044), 100 μg/ml penicillin and 100 μg/ml streptomycin. The cells were seeded at 5×10^4 cells/well in the poly-D-lysine treated, 96-well, black/clear-bottomed plates (Catalog No. BD356640, BD Biosciences, Palo Alto, Calif.). 24 h later, the cells were loaded for 1 h at 37° C. with 4 μM Flou-4 acetoxymethyl ester (Catalog No. F-14202, Molecular Probes, Eugene, Oreg.) in FLIPR buffer (1×HBSS, 20 mM HEPES, 2.5 mM Probenecid). Hanks' Balanced Salt Solution (HBSS) (10×) (catalog No. 14065-049) and HEPES (1M) (catalog No. 15630-056) were purchased from Invitrogen, Carlsbad, Calif. Probenecid (250 mM) (catalog No. P8761) was from Sigma, Buchs, Switzerland. The cells were washed five times with FLIPR buffer to remove excess dye and intracellular calcium mobilization, [Ca^2+]i were measured using a Fluorometric Imaging Plate Reader (FLIPR-96, Molecular Devices, Menlo Park, Calif.) as described previously (Malherbe et al., Mol. Pharmacol., 64, 823-832, 2003). Orexin A (catalog No. 1455, Toris Cookson Ltd, Bristol, UK) was used as agonist. Orexin A ([…] stock solution in DMSO) was diluted in FLIPR buffer+0.1% BSA. The EC50 and EC80 values of orexin-A were measured daily from standard agonist concentration-response curves in CHO(dHFr-)-OX1R and -OX2R cell lines. All compounds were dissolved in 100% DMSO. Inhibition curves were determined by addition of 11 concentrations (0.0001-10 μM) of inhibitory compounds and using EC80 value of orexin-A as agonist (a concentration which gave 80% of max agonist response, determined daily). The antagonists were applied 25 min (incubation at 37° C.) before the application of the agonist. Responses were measured as peak increase in fluorescence minus basal, normalized to the maximal stimulatory effect induced by EC80 value of orexin-A or orexin-B. Inhibition curves were fitted according to the Hill equation: y=100/(1+(x/IC50)^nH), where nH=slope factor using Excel-fit 4 software (Microsoft). Kb values were calculated according to the following equation Kb=IC50/(1+[A]/EC50) where A is the concentration of agonist added which is very close to agonist EC80 value, and IC50 and EC50 values were derived from the antagonist inhibition and orexin-A or B agonist curves, respectively.

In order of falling Kb:
1. Cc1ccc(Cl)c(C(=O)N2CC[C@@H](CNc3cnc4cc(Cl)ccc4n3)C2)c1 [Example 31, (2-Chloro-5-methyl-phenyl)-{(S)-3-[(6-chloro-quinoxalin-2-ylamino)-methyl]-pyrrolidin-1-yl}-methanone]  0.539 µM
2. Cc1onc(-c2ccccc2)c1C(=O)N1CC[C@@H](CNc2cnc3cc(Cl)ccc3n2)C1 [Example 29, {(S)-3-[(6-Chloro-quinoxalin-2-ylamino)-methyl]-pyrrolidin-1-yl}-(5-methyl-3-phenyl-isoxazol-4-yl)-methanone]  0.407 µM
3. O=C(c1cnoc1-c1ccccc1)N1CC[C@@H](CNc2cnc3cc(Cl)ccc3n2)C1 [Example 30, {(S)-3-[(6-Chloro-quinoxalin-2-ylamino)-methyl]-pyrrolidin-1-yl}-(5-phenyl-isoxazol-4-yl)-methanone]  0.34 µM
4. Cc1ccc(C(F)(F)F)c(C(=O)N2CC[C@@H](CNc3cnc4cc(Cl)ccc4n3)C2)c1 [Example 28, {(S)-3-[(6-Chloro-quinoxalin-2-ylamino)-methyl]-pyrrolidin-1-yl}-(5-methyl-2-trifluoromethyl-phenyl)-methanone]  0.331 µM
5. COc1ccc(C)cc1C(=O)N1CC[C@@H](CNc2cnc3cc(Cl)ccc3n2)C1 [Example 32, {(S)-3-[(6-Chloro-quinoxalin-2-ylamino)-methyl]-pyrrolidin-1-yl}-(2-methoxy-5-methyl-phenyl)-methanone]  0.185 µM
6. O=C(c1ccccc1OC(F)(F)C(F)F)N1CC[C@@H](CNc2cnc3cc(Cl)ccc3n2)C1 [Example 27, {(S)-3-[(6-Chloro-quinoxalin-2-ylamino)-methyl]-pyrrolidin-1-yl}-[2-(1,1,2,2-tetrafluoro-ethoxy)-phenyl]-methanone]  0.0839 µM
